From KR20110136074A, “안정한 에스-베포타스틴 함유 약학조성물 및 이의 제조방법” (이우영, priority 2010, dated 2011)

How the values were obtained:
[1] = Optical purity (chiral HPLC) after storage for 4 weeks at 60℃, 75% relative humidity, exposed or sealed; assay type: physicochemical
[2] = by moisture in additives when formulated with usual excipients and binders; cited from earlier work
[3] = 40℃, 75% relative humidity; cited from earlier work

O=C(O)CCCN1CCC(O[C@@H](c2ccc(Cl)cc2)c2ccccn2)CC1 [유상의 (S)-베포타스틴]
optical purity after 4 weeks, exposed state ([1]; exposed): 95.56% | optical purity after 4 weeks ([1]; exposed or sealed): 95.5~97.4% | optical purity after 4 weeks, sealed state ([1]; sealed): 97.32% | racemization to the (R)-isomer [2]: (R)-배열의 이성체로 라세미화가 일어나

O=C(O)CCCN1CCC(O[C@@H](c2ccc(Cl)cc2)c2ccccn2)CC1.O=S(=O)(O)c1ccccc1 [(S)-베포타스틴 벤젠술폰산염]
formation of (R)-isomer and degradation products [3]: (R)-배열의 이성체 및 분해물이 생성된다
